Measurements taken from PubChem BioAssay AID1963430 (Molecular Pharmacology Branch, DTP, NCI, 2024).

Tested on: 521955-158-R2-J5-PDC complex spheroid growth, % test/control
Experiment: Anticancer human tumor 521955-158-R2-J5-PDC patient-derived pancreatic carcinoma cell line growth inhibition [Asc]
Details: for IC50: curve of first compound; for viability, T/C: stronger effect = lower value
Summary of the method: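 Tumor cells were grown as complex spheroids with human endothelial cells (HUVEC) and human mesenchymal stem cells as stroma. Agents were tested alone and in combination, in half-log steps down from the clinical Cmax, or from 10 microM where Cmax was unknown.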

[1] = second compound 0.1 µM, first compound 0.0316 µM
[2] = second compound 0.1 µM, first compound 0.1 µM
[3] = second compound 0.1 µM, first compound 0.316 µM
[4] = second compound 0.1 µM, first compound 1 µM
[5] = second compound 0.1 µM, first compound 3.16 µM
[6] = second compound 0.1 µM, first compound 10 µM
[7] = second compound 0.316 µM, first compound 0.0316 µM
[8] = second compound 0.316 µM, first compound 0.1 µM
[9] = second compound 0.316 µM, first compound 0.316 µM
[10] = second compound 0.316 µM, first compound 1 µM
[11] = second compound 0.316 µM, first compound 3.16 µM
[12] = second compound 0.316 µM, first compound 10 µM
[13] = second compound 1 µM, first compound 0.0316 µM
[14] = second compound 1 µM, first compound 0.1 µM
[15] = second compound 1 µM, first compound 0.316 µM
[16] = second compound 1 µM, first compound 1 µM
[17] = second compound 1 µM, first compound 3.16 µM
[18] = second compound 1 µM, first compound 10 µM
[19] = second compound 3.16 µM, first compound 0.0316 µM
[20] = second compound 3.16 µM, first compound 0.1 µM
[21] = second compound 3.16 µM, first compound 0.316 µM
[22] = second compound 3.16 µM, first compound 1 µM
[23] = second compound 3.16 µM, first compound 3.16 µM
[24] = second compound 3.16 µM, first compound 10 µM
[25] = second compound 10 µM, first compound 0.0316 µM
[26] = second compound 10 µM, first compound 0.1 µM
[27] = second compound 10 µM, first compound 0.316 µM
[28] = second compound 10 µM, first compound 1 µM
[29] = second compound 10 µM, first compound 3.16 µM
[30] = second compound 10 µM, first compound 10 µM
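Also: spheroids exposed to agents for 7 days before readout.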
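For viability, T/C in this document: 100% = DMSO vehicle control viability.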

Cn1ncnc1[C@H]1c2n[nH]c(=O)c3cc(F)cc(c23)N[C@@H]1c1ccc(F)cc1 + CCN1C(C(=O)NC23CCC(C(=O)O)(CC2)CC3)C(c2cccc(Cl)c2F)C2(C(=O)Nc3cc(Cl)ccc32)C12CCCCC2 was tested, and the IC50 (second compound 0.03 µM) was > 0.1 µM, the IC50 (second compound 0.0949 µM) was > 0.1 µM and the IC50 (second compound 0.3 µM) was > 0.1 µM. For the same compound, the IC50 (second compound 0.949 µM) was > 0.1 µM, the IC50 (second compound 3 µM) was > 0.1 µM and the viability, T/C (second compound 0.03 µM, first compound 0.000316 µM) was 142%. The viability, T/C (second compound 0.03 µM, first compound 0.001 µM) was 56.8%, the viability, T/C (second compound 0.03 µM, first compound 0.00316 µM) was 100% and the viability, T/C (second compound 0.03 µM, first compound 0.01 µM) was 57.9%. It also gave a viability, T/C (second compound 0.03 µM, first compound 0.0316 µM) of 76.7%, a viability, T/C (second compound 0.03 µM, first compound 0.1 µM) of 55.6% and a viability, T/C (second compound 0.0949 µM, first compound 0.000316 µM) of 104%. It also gave a viability, T/C (second compound 0.0949 µM, first compound 0.001 µM) of 77.5%, a viability, T/C (second compound 0.0949 µM, first compound 0.00316 µM) of 90.5% and a viability, T/C (second compound 0.0949 µM, first compound 0.01 µM) of 71.7%. The viability, T/C (second compound 0.0949 µM, first compound 0.0316 µM) was 66.6%, the viability, T/C (second compound 0.0949 µM, first compound 0.1 µM) was 49.4% and the viability, T/C (second compound 0.3 µM, first compound 0.000316 µM) was 90.6%. It also gave a viability, T/C (second compound 0.3 µM, first compound 0.001 µM) of 100%, a viability, T/C (second compound 0.3 µM, first compound 0.00316 µM) of 101% and a viability, T/C (second compound 0.3 µM, first compound 0.01 µM) of 110%. For the same compound, the viability, T/C (second compound 0.3 µM, first compound 0.0316 µM) was 78%, the viability, T/C (second compound 0.3 µM, first compound 0.1 µM) was 67.8% and the viability, T/C (second compound 0.949 µM, first compound 0.000316 µM) was 116%. It also gave a viability, T/C (second compound 0.949 µM, first compound 0.001 µM) of 135%, a viability, T/C (second compound 0.949 µM, first compound 0.00316 µM) of 107% and a viability, T/C (second compound 0.949 µM, first compound 0.01 µM) of 98.9%. It also gave a viability, T/C (second compound 0.949 µM, first compound 0.0316 µM) of 94.2%, a viability, T/C (second compound 0.949 µM, first compound 0.1 µM) of 73% and a viability, T/C (second compound 3 µM, first compound 0.000316 µM) of 146%. For the same compound, the viability, T/C (second compound 3 µM, first compound 0.001 µM) was 116%, the viability, T/C (second compound 3 µM, first compound 0.00316 µM) was 122% and the viability, T/C (second compound 3 µM, first compound 0.01 µM) was 130%. For the same compound, the viability, T/C (second compound 3 µM, first compound 0.0316 µM) was 122% and the viability, T/C (second compound 3 µM, first compound 0.1 µM) was 86.6%.
In the case of C#Cc1c(F)ccc2cc(O)cc(-c3ncc4c(N5CC6CCC(C5)N6)nc(OCC56CCCN5CC(F)C6)nc4c3F)c12 (stereo not given) + Cc1c(S(C)(=O)=O)c(-c2cc(F)cc(N3CCN(c4ccc(NS(=O)(=O)c5ccc(NC(CCN6CCC(C(=O)OCCCP(=O)(O)O)CC6)CSc6ccccc6)c(S(=O)(=O)C(F)(F)F)c5)cc4)CC3)c2)c(-c2ccc(Cl)cc2)n1C(C)C, the IC50 (second compound 0.1 µM) is reported as < 0.0316 µM, the IC50 (second compound 0.316 µM) is reported as < 0.0316 µM and the IC50 (second compound 1 µM) is reported as < 0.0316 µM. The IC50 (second compound 3.16 µM) was < 0.0316 µM, the IC50 (second compound 10 µM) was > 10 µM and the viability, T/C [1] was 44.7%. The viability, T/C [2] was 30.4%, the viability, T/C [3] was 38.7% and the viability, T/C [4] was 33.9%. It also gave a viability, T/C [5] of 38.5%, a viability, T/C [6] of 34% and a viability, T/C [7] of 43.6%. The viability, T/C [8] was 27.9%, the viability, T/C [9] was 33.3% and the viability, T/C [10] was 32.1%. The viability, T/C [11] was 32.5%, the viability, T/C [12] was 34.4% and the viability, T/C [13] was 31.3%. For the same compound, the viability, T/C [14] was 38.4%, the viability, T/C [15] was 39.3% and the viability, T/C [16] was 31.8%. The viability, T/C [17] was 28.8%, the viability, T/C [18] was 29.4% and the viability, T/C [19] was 42.2%. The viability, T/C [20] was 41.3%, the viability, T/C [21] was 34.7% and the viability, T/C [22] was 34.8%. The viability, T/C [23] was 35.9%, the viability, T/C [24] was 44.7% and the viability, T/C [25] was 174%. It also gave a viability, T/C [26] of 152%, a viability, T/C [27] of 155% and a viability, T/C [28] of 152%. The viability, T/C [29] was 113% and the viability, T/C [30] was 79.6%.
With C=C(F)C(=O)N1CCN(c2nc(OCC3CCCN3C)nc3c2CCN(c2cccc4cccc(Cl)c24)C3)CC1CC#N (stereo not given) + Cc1c(S(C)(=O)=O)c(-c2cc(F)cc(N3CCN(c4ccc(NS(=O)(=O)c5ccc(NC(CCN6CCC(C(=O)OCCCP(=O)(O)O)CC6)CSc6ccccc6)c(S(=O)(=O)C(F)(F)F)c5)cc4)CC3)c2)c(-c2ccc(Cl)cc2)n1C(C)C the IC50 (second compound 0.1 µM) was 4.85 µM, the IC50 (second compound 0.316 µM) was 4.94 µM and the IC50 (second compound 1 µM) was 5.24 µM. For the same compound, the IC50 (second compound 3.16 µM) was 5.01 µM, the IC50 (second compound 10 µM) was 6.66 µM and the viability, T/C [1] was 64.6%. The viability, T/C [2] was 69.9%, the viability, T/C [3] was 55.4% and the viability, T/C [4] was 105%. For the same compound, the viability, T/C [5] was 101%, the viability, T/C [6] was 0.26% and the viability, T/C [7] was 69%. The viability, T/C [8] was 76.6%, the viability, T/C [9] was 81.7% and the viability, T/C [10] was 84.3%. It also gave a viability, T/C [11] of 95.5%, a viability, T/C [12] of 0.21% and a viability, T/C [13] of 105%. For the same compound, the viability, T/C [14] was 82.9%, the viability, T/C [15] was 69.2% and the viability, T/C [16] was 80.8%. For the same compound, the viability, T/C [17] was 106%, the viability, T/C [18] was 0.21% and the viability, T/C [19] was 62.4%. For the same compound, the viability, T/C [20] was 80.9%, the viability, T/C [21] was 69.5% and the viability, T/C [22] was 104%. For the same compound, the viability, T/C [23] was 99.2%, the viability, T/C [24] was 0.23% and the viability, T/C [25] was 190%. For the same compound, the viability, T/C [26] was 168%, the viability, T/C [27] was 195% and the viability, T/C [28] was 188%. The viability, T/C [29] was 138% and the viability, T/C [30] was 2.12%.
For Cc1nc(N2CCC3(CC2)COC(C)C3N)c(CO)nc1Sc1ccnc(N)c1Cl (stereo not given) + CNC(C)C(=O)NC1CN(S(=O)(=O)c2cccc(S(=O)(=O)N3CCC4CCC(C(=O)NC(c5ccccc5)c5ccccc5)N4C(=O)C(NC(=O)C(C)NC)C3)c2)CCC2CCC(C(=O)NC(c3ccccc3)c3ccccc3)N2C1=O, the IC50 (second compound 0.01 µM) was 0.613 µM, the IC50 (second compound 0.0316 µM) was 0.888 µM and the IC50 (second compound 0.1 µM) was 0.271 µM. For the same compound, the IC50 (second compound 0.316 µM) was > 3 µM, the IC50 (second compound 1 µM) was 1.48 µM and the viability, T/C (second compound 0.01 µM, first compound 0.00949 µM) was 86.7%. For the same compound, the viability, T/C (second compound 0.01 µM, first compound 0.03 µM) was 67.7%, the viability, T/C (second compound 0.01 µM, first compound 0.0949 µM) was 64.6% and the viability, T/C (second compound 0.01 µM, first compound 0.3 µM) was 49%. For the same compound, the viability, T/C (second compound 0.01 µM, first compound 0.949 µM) was 48.9%, the viability, T/C (second compound 0.01 µM, first compound 3 µM) was 46.2% and the viability, T/C (second compound 0.0316 µM, first compound 0.00949 µM) was 83.6%. For the same compound, the viability, T/C (second compound 0.0316 µM, first compound 0.03 µM) was 72%, the viability, T/C (second compound 0.0316 µM, first compound 0.0949 µM) was 66.7% and the viability, T/C (second compound 0.0316 µM, first compound 0.3 µM) was 46%. The viability, T/C (second compound 0.0316 µM, first compound 0.949 µM) was 50.4%, the viability, T/C (second compound 0.0316 µM, first compound 3 µM) was 52.6% and the viability, T/C (second compound 0.1 µM, first compound 0.00949 µM) was 84.3%. The viability, T/C (second compound 0.1 µM, first compound 0.03 µM) was 68.1%, the viability, T/C (second compound 0.1 µM, first compound 0.0949 µM) was 58.9% and the viability, T/C (second compound 0.1 µM, first compound 0.3 µM) was 43%. For the same compound, the viability, T/C (second compound 0.1 µM, first compound 0.949 µM) was 52.1%, the viability, T/C (second compound 0.1 µM, first compound 3 µM) was 46.9% and the viability, T/C (second compound 0.316 µM, first compound 0.00949 µM) was 93.3%. For the same compound, the viability, T/C (second compound 0.316 µM, first compound 0.03 µM) was 65.3%, the viability, T/C (second compound 0.316 µM, first compound 0.0949 µM) was 64.4% and the viability, T/C (second compound 0.316 µM, first compound 0.3 µM) was 51.9%. The viability, T/C (second compound 0.316 µM, first compound 0.949 µM) was 53.9%, the viability, T/C (second compound 0.316 µM, first compound 3 µM) was 51.6% and the viability, T/C (second compound 1 µM, first compound 0.00949 µM) was 76.7%. It also gave a viability, T/C (second compound 1 µM, first compound 0.03 µM) of 59.3%, a viability, T/C (second compound 1 µM, first compound 0.0949 µM) of 62.2% and a viability, T/C (second compound 1 µM, first compound 0.3 µM) of 50.9%. It also gave a viability, T/C (second compound 1 µM, first compound 0.949 µM) of 57.2% and a viability, T/C (second compound 1 µM, first compound 3 µM) of 45%.
